Laboratory results published in ChEMBL document CHEMBL6083219, “Rationally designed febuxostat-based hydroxamic acid and its pH-Responsive nanoformulation elicits anti-tumor activity” (Eur J Med Chem, 2024).
Active and inactive are the calls of the source.

What was measured:
[1] = system: HL-60; experiment: Upregulation of acetylated alpha tubulin level in human HL-60 cells by Western blotting analysis; assay type: functional, cell-based; details: dose 0.5-2 µM
[2] = system: Rattus norvegicus; experiment: Anti-hyperuricemic activity against potassium oxonate-induced hyperuricemia Wistar rat model assessed as improvement in renal condition at 2.5 mg/kg measured after 14 days by H and E staining based assay; assay type: functional, organism-based; details: time 14.0 day
[3] = system: MDA-MB-231; experiment: Induction of apoptosis in human MDA-MB-231 cells assessed as cell death at sub-G1 phase at 0.5 to 1 uM incubated for 48 hrs; assay type: functional, cell-based; details: dose 0.5-1 µM
[4] = system: HL-60; experiment: Antitumor activity against human HL-60 cells xenografted in ip dosed BALB/c nude mouse model assessed as reduction in tumor volume and measured twice a week for 22 days; assay type: functional, organism-based; details: dose 50-100 mg/kg, time 22.0 day
[5] = system: HL-60; experiment: Antitumor activity against human HL-60 cells xenografted in BALB/c nude mouse model assessed as reduction in tumor volume at 50 to 100 mg/kg, ip measured twice a week for 22 days; assay type: functional, organism-based; details: dose 50-100 mg/kg, time 22.0 day
[6] = system: NCI-H1975; assay type: functional, cell-based; details: Homo sapiens, NCI-H1975, 48 h
[7] = system: Rattus norvegicus; experiment: Anti-hyperuricemic activity against potassium oxonate-induced hyperuricemia Wistar rat model assessed as increase in hemoglobin levels at 5 mg/kg measured after 14 days; assay type: functional, organism-based; details: time 14.0 day
[8] = system: Rattus norvegicus; experiment: Anti-hyperuricemic activity against potassium oxonate-induced hyperuricemia Wistar rat model assessed as increase in number of cuboidal cells at 10 mg/kg measured after 14 days by H and E staining based assay; assay type: functional, organism-based; details: time 14.0 day
[9] = system: Rattus norvegicus; experiment: Anti-hyperuricemic activity against potassium oxonate-induced hyperuricemia Wistar rat model assessed as enhancement in complete blood count at 10 mg/kg measured after 14 days; assay type: functional, organism-based; details: time 14.0 day
[10] = system: Rattus norvegicus; experiment: Anti-hyperuricemic activity against potassium oxonate-induced hyperuricemia Wistar rat model assessed as reduction in DCT expansion at 10 mg/kg measured after 14 days by H and E staining based assay; assay type: functional, organism-based; details: time 14.0 day
[11] = system: Rattus norvegicus; experiment: Anti-hyperuricemic activity against potassium oxonate-induced hyperuricemia Wistar rat model assessed as increase in neutrophils at 5 mg/kg measured after 14 days; assay type: functional, organism-based; details: time 14.0 day
[12] = system: Rattus norvegicus; experiment: Anti-hyperuricemic activity against potassium oxonate-induced hyperuricemia Wistar rat model assessed as improvement in renal condition at 5 mg/kg by measuring decrease in degeneration of tubular cells measured after 14 days by H and E staining based assay; assay type: functional, organism-based; details: time 14.0 day
[13] = system: Rattus norvegicus; experiment: Anti-hyperuricemic activity against potassium oxonate-induced hyperuricemia Wistar rat model assessed as increase in platelet counts at 5 mg/kg measured after 14 days; assay type: functional, organism-based; details: time 14.0 day
[14] = system: Rattus norvegicus; experiment: Anti-hyperuricemic activity against potassium oxonate-induced hyperuricemia Wistar rat model assessed as improvement in renal condition at 5 mg/kg by measuring decrease in enlargement of glomeruli measured after 14 days by H and E staining based assay; assay type: functional, organism-based; details: time 14.0 day
[15] = system: HL-60; experiment: Induction of apoptosis in human HL-60 cells at 0.5 to 2 uM incubated for 48 hrs by propidium iodide staining based flow cytometry analysis; assay type: functional, cell-based; details: dose 0.5-2 µM
[16] = system: MDA-MB-231; experiment: Downregulation of HDAC1 expression level in human MDA-MB-231 cells at 0.5 to 2 uM by Western blotting analysis; assay type: functional, cell-based; details: dose 0.5-2 µM
[17] = Cytotoxicity against mouse L929 cells incubated for 1 day by MTT assay; assay type: toxicity, cell-based
[18] = system: Rattus norvegicus; experiment: Anti-hyperuricemic activity against potassium oxonate-induced hyperuricemia Wistar rat model assessed as improvement in renal condition at 5 mg/kg by measuring decrease in enlargement of tubular cells measured after 14 days by H and E staining based assay; assay type: functional, organism-based; details: time 14.0 day
[19] = system: MOLT-4; experiment: Cytotoxicity against human MOLT-4 cells incubated for 1 day by MTT assay; assay type: functional, cell-based; details: MOLT-4, 24 h
[20] = system: Rattus norvegicus; experiment: Anti-hyperuricemic activity against potassium oxonate-induced hyperuricemia Wistar rat model assessed as decrease in blood urea level at 2.5 mg/kg measured after 14 days; assay type: functional, organism-based; details: time 14.0 day
[21] = system: Rattus norvegicus; experiment: Anti-hyperuricemic activity against potassium oxonate-induced hyperuricemia Wistar rat model assessed as effect on complete blood count at 2.5 mg/kg measured after 14 days; assay type: functional, organism-based; details: time 14.0 day
[22] = system: Rattus norvegicus; experiment: Anti-hyperuricemic activity against potassium oxonate-induced hyperuricemia Wistar rat model assessed as increase in lymphocytes at 5 mg/kg measured after 14 days; assay type: functional, organism-based; details: time 14.0 day
[23] = system: Rattus norvegicus; experiment: Anti-hyperuricemic activity against potassium oxonate-induced hyperuricemia Wistar rat model assessed as decrease in blood urea level at 5 to 10 mg/kg measured after 14 days; assay type: functional, organism-based; details: dose 5-10 mg/kg, time 14.0 day
[24] = system: HL-60; experiment: Downregulation of mTOR expression level in human HL-60 cells at 0.5 to 2 uM by Western blotting analysis; assay type: functional, cell-based; details: dose 0.5-2 µM
[25] = system: Rattus norvegicus; experiment: Anti-hyperuricemic activity against potassium oxonate-induced hyperuricemia Wistar rat model assessed as improvement in renal condition by measuring decrease in tubular cell swelling at 10 mg/kg measured after 14 days by H and E staining based assay; assay type: functional, organism-based; details: time 14.0 day
[26] = system: HL-60; experiment: Downregulation of HDAC6 expression level in human HL-60 cells at 0.5 to 2 uM by Western blotting analysis; assay type: functional, cell-based; details: dose 0.5-2 µM
[27] = system: Rattus norvegicus; experiment: Anti-hyperuricemic activity against potassium oxonate-induced hyperuricemia Wistar rat model assessed as increase in monocytes at 5 mg/kg measured after 14 days; assay type: functional, organism-based; details: time 14.0 day
[28] = system: HL-60; experiment: Cytotoxicity against human HL-60 cells incubated for 1 day by MTT assay; assay type: functional, cell-based; details: HL-60, 24 h
[29] = system: HL-60; experiment: Downregulation of HDAC3 expression level in human HL-60 cells at 0.5 to 2 uM by Western blotting analysis; assay type: functional, cell-based; details: dose 0.5-2 µM
[30] = system: Mitochondrial membrane; experiment: Induction of mitochondrial membrane potential loss in human HL-60 cells at 0.5 to 2 uM by rhodamine 123 staining based flow cytometry analysis; details: dose 0.5-2 µM
[31] = system: MDA-MB-231; experiment: Downregulation of HDAC2 expression level in human MDA-MB-231 cells at 0.5 to 2 uM by Western blotting analysis; assay type: functional, cell-based; details: dose 0.5-2 µM
[32] = system: Rattus norvegicus; experiment: Anti-hyperuricemic activity against potassium oxonate-induced hyperuricemia Wistar rat model assessed as decrease in serum uric acid level at 10 mg/kg measured after 14 days; assay type: functional, organism-based; details: time 14.0 day
[33] = system: MDA-MB-231; experiment: Upregulation of acetylated histone H3 level in human MDA-MB-231 cells by Western blotting analysis; assay type: functional, cell-based; details: dose 0.5-2 µM
[34] = system: HL-60; experiment: Induction of autophagy in human HL-60 cells assessed as upregulation of LC3-II expression level at 0.5 to 2 uM by Western blotting assay; assay type: functional, cell-based; details: dose 0.5-2 µM
[35] = system: MDA-MB-231; experiment: Induction of autophagy in human MDA-MB-231 cells assessed as upregulation of LC3-II expression level at 1 to 4 uM by Western blotting assay; assay type: functional, cell-based; details: dose 1-4 µM
[36] = system: Rattus norvegicus; experiment: Anti-hyperuricemic activity against potassium oxonate-induced hyperuricemia Wistar rat model assessed as decrease in serum uric acid level at 2.5 mg/kg measured after 14 days; assay type: functional, organism-based; details: time 14.0 day
[37] = system: Rattus norvegicus; experiment: Anti-hyperuricemic activity against potassium oxonate-induced hyperuricemia Wistar rat model assessed as decrease in number of eosinophils at 5 mg/kg measured after 14 days; assay type: functional, organism-based; details: time 14.0 day
[38] = system: MDA-MB-231; experiment: cells; details: Homo sapiens, MDA-MB-231, 48 h
Description: Cytotoxicity against human MDA-MB-231 cells incubated for 48 hrs by MTT assay

[39] = system: MDA-MB-231; experiment: Induction of apoptosis in human MDA-MB-231 cells assessed as G2/M phase arrest at 0.5 to 1 uM incubated for 48 hrs; assay type: functional, cell-based; details: dose 0.5-1 µM
[40] = system: K562; experiment: Cytotoxicity against human K562 cells incubated for 1 day by MTT assay; assay type: functional, cell-based; details: K562, 24 h
[41] = molecular target: Xanthine dehydrogenase/oxidase (Bos taurus, UniProt P80457); experiment: Inhibition of bovine milk xanthine oxidase
[42] = system: HL-60; experiment: Upregulation of cleaved caspase-3 expression level in human HL-60 cells at 0.5 to 2 uM by Western blotting analysis; assay type: functional, cell-based; details: dose 0.5-2 µM

Xanthine dehydrogenase/oxidase, sequence (P80457 whole entry): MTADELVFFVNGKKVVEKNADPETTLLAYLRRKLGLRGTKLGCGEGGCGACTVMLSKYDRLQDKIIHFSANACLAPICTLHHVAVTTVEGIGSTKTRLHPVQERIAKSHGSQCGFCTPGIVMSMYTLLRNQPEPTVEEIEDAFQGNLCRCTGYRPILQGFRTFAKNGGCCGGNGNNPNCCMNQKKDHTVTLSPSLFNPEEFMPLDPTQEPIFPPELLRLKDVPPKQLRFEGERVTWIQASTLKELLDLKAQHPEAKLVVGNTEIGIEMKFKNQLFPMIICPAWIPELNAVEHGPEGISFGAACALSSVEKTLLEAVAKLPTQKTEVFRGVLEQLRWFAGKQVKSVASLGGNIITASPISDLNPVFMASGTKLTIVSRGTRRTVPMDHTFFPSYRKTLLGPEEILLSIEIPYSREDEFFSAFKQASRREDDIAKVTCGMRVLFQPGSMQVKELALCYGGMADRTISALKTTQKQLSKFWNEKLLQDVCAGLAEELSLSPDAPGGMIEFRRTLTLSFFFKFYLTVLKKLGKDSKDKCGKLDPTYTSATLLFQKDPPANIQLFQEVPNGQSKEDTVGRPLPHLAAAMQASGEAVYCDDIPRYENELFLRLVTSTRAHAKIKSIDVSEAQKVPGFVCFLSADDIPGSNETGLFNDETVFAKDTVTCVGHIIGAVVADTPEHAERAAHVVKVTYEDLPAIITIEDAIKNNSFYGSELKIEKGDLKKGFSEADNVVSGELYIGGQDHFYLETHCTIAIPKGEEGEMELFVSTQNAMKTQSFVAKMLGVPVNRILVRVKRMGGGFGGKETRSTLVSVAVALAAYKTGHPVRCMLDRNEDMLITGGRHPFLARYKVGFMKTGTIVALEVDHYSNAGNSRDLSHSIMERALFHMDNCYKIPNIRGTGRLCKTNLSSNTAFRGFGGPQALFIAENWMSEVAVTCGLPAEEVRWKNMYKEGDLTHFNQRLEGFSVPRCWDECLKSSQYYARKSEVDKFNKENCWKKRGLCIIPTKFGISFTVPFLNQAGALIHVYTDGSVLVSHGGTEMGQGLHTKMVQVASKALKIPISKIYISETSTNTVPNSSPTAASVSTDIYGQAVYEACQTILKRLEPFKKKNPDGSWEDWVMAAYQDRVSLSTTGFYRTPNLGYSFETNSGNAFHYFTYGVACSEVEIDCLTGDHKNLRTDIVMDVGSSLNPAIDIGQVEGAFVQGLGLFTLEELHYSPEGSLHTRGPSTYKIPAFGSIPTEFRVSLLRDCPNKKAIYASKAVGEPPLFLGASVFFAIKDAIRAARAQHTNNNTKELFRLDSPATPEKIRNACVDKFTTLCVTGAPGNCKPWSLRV

Cc1nc(-c2ccc(OCC(C)C)c(C#N)c2)sc1C(=O)NCCCCCCC(=O)NO
0.0066 µM: IC50 [41]
1.21 µM: IC50 [40]
2.23 µM: IC50 at 1 day [17]
5.45 µM: IC50 [6]
inactive: Activity [2] | Activity [20] | Activity [21] | Activity [36]
0.706 µM: IC50 [28]
1.19 µM: IC50 [19]
active: Activity [1] Dose-dependent-effect | Activity [3] | Activity [4] Dose-dependent-effect | Activity [7] | Activity [8] | Activity [9] | Activity [10] | Activity [11] | Activity [12] | Activity [13] | Activity [14] | Activity [16] | Activity [18] | Activity [22] | Activity [23] | Activity [24] | Activity [25] | Activity [27] | Activity [30] | Activity [31] | Activity [32] | Activity [33] Dose-dependent-effect | Activity [34] | Activity [35] | Activity [37] | Activity [39] | Activity [42]
Active; Activity More Potent Than Saha: Activity [5] | Activity [26] | Activity [29]
Active; Activity Similar To Saha: Activity [15]
2.94 µM: IC50 [38]
